Results published in PubChem BioAssay (NCI).
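Method: 48-hour compound exposure of cells in 96-well plates, five concentrations, linear interpolation of endpoints. GI50 marks 50% less growth. At the TGI there is no net growth.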

Tests used:
Assay in all cases: NCI anticancer screen, dose series, 48 h
IGROV1 ovarian = test system: IGROV1 ovarian
SNB-19 CNS = test system: SNB-19 CNS
UACC-62 melanoma = test system: UACC-62 melanoma
MDA-MB-231 breast = test system: MDA-MB-231 breast
UACC-257 melanoma = test system: UACC-257 melanoma
HOP-92 NSCLC = test system: HOP-92 NSCLC
NCI-H460 lung = test system: NCI-H460 lung
786-0 renal = test system: 786-0 renal
UO-31 renal = test system: UO-31 renal
HOP-62 NSCLC = test system: HOP-62 NSCLC
HS 578T breast = test system: HS 578T breast
SR leukemia = test system: SR leukemia
OVCAR-5 ovarian = test system: OVCAR-5 ovarian
SNB-75 CNS = test system: SNB-75 CNS
RPMI-8226 leukemia = test system: RPMI-8226 leukemia
TK-10 renal = test system: TK-10 renal
CAKI-1 renal = test system: CAKI-1 renal
OVCAR-8 ovarian = test system: OVCAR-8 ovarian
DU-145 prostate = test system: DU-145 prostate
SK-MEL-28 melanoma = test system: SK-MEL-28 melanoma
HL-60(TB) leukemia = test system: HL-60(TB) leukemia
SW-620 colon = test system: SW-620 colon
MDA-MB-435 = test system: MDA-MB-435
LOX IMVI melanoma = test system: LOX IMVI melanoma
K-562 leukemia = test system: K-562 leukemia
HCT-15 colon = test system: HCT-15 colon
U251 CNS = test system: U251 CNS
CCRF-CEM leukemia = test system: CCRF-CEM leukemia
KM12 colon = test system: KM12 colon
RXF 393 renal = test system: RXF 393 renal
NCI-H23 lung = test system: NCI-H23 lung
T-47D breast = test system: T-47D breast
PC-3 prostate = test system: PC-3 prostate
SN12C renal = test system: SN12C renal
A549 NSCLC = test system: A549 NSCLC
OVCAR-4 ovarian = test system: OVCAR-4 ovarian
BT-549 breast = test system: BT-549 breast
SK-MEL-2 melanoma = test system: SK-MEL-2 melanoma
M14 melanoma = test system: M14 melanoma
SF-539 CNS = test system: SF-539 CNS
OVCAR-3 ovarian = test system: OVCAR-3 ovarian
HT29 colon = test system: HT29 colon
MALME-3M melanoma = test system: MALME-3M melanoma
NCI-H522 lung = test system: NCI-H522 lung
SK-OV-3 ovarian = test system: SK-OV-3 ovarian
EKVX NSCLC = test system: EKVX NSCLC
MCF7 breast = test system: MCF7 breast
SF-268 CNS = test system: SF-268 CNS
A498 renal = test system: A498 renal
SK-MEL-5 melanoma = test system: SK-MEL-5 melanoma
HCC-2998 colon = test system: HCC-2998 colon
NCI-H226 lung = test system: NCI-H226 lung
ACHN renal = test system: ACHN renal
NCI/ADR-RES ovarian = test system: NCI/ADR-RES ovarian
HCT-116 colon = test system: HCT-116 colon
SF-295 CNS = test system: SF-295 CNS
MOLT-4 leukemia = test system: MOLT-4 leukemia
COLO 205 colon = test system: COLO 205 colon

Q: Which results are given for `COc1ccc(C(=O)/C=C/c2cc3ccccc3[nH]c2=O)cc1`?
A: GI50 (IGROV1 ovarian): 28.6 µM; TGI (IGROV1 ovarian): 97.6 µM; GI50 (SNB-19 CNS): 23.2 µM; TGI (SNB-19 CNS): > 57.5 µM; GI50 (UACC-62 melanoma): 24.4 µM; TGI (UACC-62 melanoma): > 57.8 µM; GI50 (MDA-MB-231 breast): 22.3 µM; TGI (MDA-MB-231 breast): > 56.4 µM; GI50 (UACC-257 melanoma): 25.5 µM; TGI (UACC-257 melanoma): > 56.5 µM; GI50 (HOP-92 NSCLC): 17 µM; TGI (HOP-92 NSCLC): 37.3 µM; GI50 (NCI-H460 lung): 19.8 µM; TGI (NCI-H460 lung): > 43.4 µM; TGI (786-0 renal): > 37.4 µM; GI50 (UO-31 renal): > 100 µM; TGI (UO-31 renal): > 100 µM; GI50 (HOP-62 NSCLC): 20.5 µM; TGI (HOP-62 NSCLC): 42.6 µM; GI50 (HS 578T breast): 20.8 µM; TGI (HS 578T breast): > 100 µM; GI50 (SR leukemia): 17.3 µM; TGI (SR leukemia): > 100 µM; GI50 (OVCAR-5 ovarian): 21.9 µM; TGI (OVCAR-5 ovarian): > 56.8 µM; GI50 (SNB-75 CNS): 15.3 µM; TGI (SNB-75 CNS): 34.8 µM; GI50 (RPMI-8226 leukemia): 18.4 µM; TGI (RPMI-8226 leukemia): > 100 µM; GI50 (TK-10 renal): 20.9 µM; TGI (TK-10 renal): > 100 µM; GI50 (CAKI-1 renal): 14.9 µM; TGI (CAKI-1 renal): 28.2 µM; GI50 (OVCAR-8 ovarian): 21.7 µM; TGI (OVCAR-8 ovarian): > 100 µM; GI50 (DU-145 prostate): 17.8 µM; TGI (DU-145 prostate): 41.9 µM; GI50 (SK-MEL-28 melanoma): 33.9 µM; TGI (SK-MEL-28 melanoma): > 67.4 µM; GI50 (HL-60(TB) leukemia): 21.9 µM; TGI (HL-60(TB) leukemia): > 100 µM; GI50 (SW-620 colon): 18.4 µM; TGI (SW-620 colon): 33.2 µM; GI50 (MDA-MB-435): 21.2 µM; TGI (MDA-MB-435): > 55.8 µM; GI50 (LOX IMVI melanoma): 13.7 µM; TGI (LOX IMVI melanoma): 25.4 µM; GI50 (K-562 leukemia): > 57.6 µM; TGI (K-562 leukemia): > 100 µM; GI50 (HCT-15 colon): 20.3 µM; TGI (HCT-15 colon): > 59.6 µM; GI50 (U251 CNS): 17.5 µM; TGI (U251 CNS): 43 µM; GI50 (CCRF-CEM leukemia): 22.3 µM; TGI (CCRF-CEM leukemia): > 100 µM; GI50 (KM12 colon): 16.5 µM; TGI (KM12 colon): 28.7 µM; GI50 (RXF 393 renal): 19.7 µM; TGI (RXF 393 renal): > 44 µM; GI50 (NCI-H23 lung): 19.7 µM; TGI (NCI-H23 lung): > 53 µM; GI50 (T-47D breast): 18.8 µM; TGI (T-47D breast): > 100 µM; GI50 (PC-3 prostate): > 59.7 µM; TGI (PC-3 prostate): > 100 µM; GI50 (SN12C renal): 21.1 µM; TGI (SN12C renal): > 100 µM; GI50 (A549 NSCLC): 20 µM; TGI (A549 NSCLC): > 100 µM; GI50 (OVCAR-4 ovarian): 19.5 µM; TGI (OVCAR-4 ovarian): > 100 µM; GI50 (BT-549 breast): 20.2 µM; TGI (BT-549 breast): > 42.9 µM; GI50 (SK-MEL-2 melanoma): 23 µM; TGI (SK-MEL-2 melanoma): > 73.8 µM; GI50 (M14 melanoma): 19.3 µM; TGI (M14 melanoma): 47.2 µM; GI50 (SF-539 CNS): 18.7 µM; TGI (SF-539 CNS): 39.8 µM; GI50 (OVCAR-3 ovarian): 17.9 µM; TGI (OVCAR-3 ovarian): 36.4 µM; GI50 (HT29 colon): 19.3 µM; TGI (HT29 colon): > 80.5 µM; GI50 (MALME-3M melanoma): 40.8 µM; TGI (MALME-3M melanoma): > 100 µM; GI50 (NCI-H522 lung): 13.5 µM; TGI (NCI-H522 lung): 24.5 µM; GI50 (SK-OV-3 ovarian): 22.7 µM; TGI (SK-OV-3 ovarian): > 91.6 µM; GI50 (EKVX NSCLC): 22.6 µM; TGI (EKVX NSCLC): > 94.3 µM; GI50 (MCF7 breast): 18.8 µM; TGI (MCF7 breast): > 96.1 µM; GI50 (SF-268 CNS): 18.1 µM; TGI (SF-268 CNS): 43 µM; GI50 (A498 renal): > 38.4 µM; TGI (A498 renal): > 100 µM; GI50 (SK-MEL-5 melanoma): 25 µM; TGI (SK-MEL-5 melanoma): > 56.6 µM; GI50 (HCC-2998 colon): 17.3 µM; TGI (HCC-2998 colon): 31.3 µM; GI50 (NCI-H226 lung): 22.1 µM; TGI (NCI-H226 lung): > 100 µM; GI50 (ACHN renal): 22.9 µM; TGI (ACHN renal): > 55.1 µM; GI50 (NCI/ADR-RES ovarian): 18.9 µM; TGI (NCI/ADR-RES ovarian): 42.9 µM; GI50 (HCT-116 colon): 14.7 µM; TGI (HCT-116 colon): 24.8 µM; GI50 (SF-295 CNS): 20.3 µM; TGI (SF-295 CNS): > 57.1 µM; GI50 (MOLT-4 leukemia): 22.2 µM; TGI (MOLT-4 leukemia): > 100 µM; GI50 (COLO 205 colon): 18.5 µM; TGI (COLO 205 colon): 35.3 µM
